Results: ChEMBL document CHEMBL1201862, “PubChem BioAssay data set” (2004)
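Each compound was tested at five concentrations against cells in 96-well plates for 48 hours. GI50 is the concentration that inhibits growth by half.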 The source made the active and inactive calls. No stated cut-off is given here; in the data, active = GI50 up to about 1.1 µM and inactive = higher. Where a SMILES comes first, the peptide text is derived from it. The star is where a group is joined. Boc = CC(C)(C)OC(=O)*; OBn = c1ccc(CO*)cc1

Experiments:
Experiment in all cases: DTP human tumour cell line panel, 48 h
[1] = system: COLO 205
[2] = system: 786-0
[3] = system: MDA-N
[4] = system: NCI-H226
[5] = system: SNB-75
[6] = system: NCI-H522
[7] = system: SK-MEL-5
[8] = system: HOP-92
[9] = system: BT-549
[10] = system: Malme-3M
[11] = system: IGROV-1
[12] = system: M14
[13] = system: PC-3
[14] = system: MDA-MB-435
[15] = system: Hs-578T
[16] = system: A498
[17] = system: NCI/ADR-RES
[18] = system: SN12C
[19] = system: TK-10
[20] = system: HCT-116

Measured: GI50

CC(C)CC(NC(=O)C(Cc1ccccc1)NC(=O)C(Cc1ccccc1)NC(=O)OC(C)(C)C)C(=O)OCc1ccccc1 (stereo not drawn) (Boc-Phe-Phe-Leu-OBn; configuration not given here)
inactive: [1] > 100 µM | [2] > 100 µM | [3] > 100 µM | [4] > 100 µM | [5] > 100 µM | [6] > 100 µM | [7] > 100 µM | [8] > 100 µM | [9] > 100 µM | [10] > 100 µM | [11] > 100 µM | [12] > 100 µM | [13] > 100 µM | [14] > 100 µM | [15] > 100 µM | [16] > 100 µM | [17] > 100 µM | [18] > 100 µM | [19] > 100 µM | [20] > 100 µM

O=C(O)CCC(=O)C(=O)O [ALPHA-KETOGLUTARIC ACID]
inactive: [1] > 100 µM | [2] > 100 µM | [3] > 100 µM | [4] > 100 µM | [5] > 100 µM | [6] > 100 µM | [7] > 100 µM | [8] > 100 µM | [9] > 100 µM | [10] > 100 µM | [11] > 100 µM | [12] > 100 µM | [13] > 100 µM | [14] > 100 µM | [15] > 100 µM | [16] > 100 µM | [17] > 100 µM | [18] > 100 µM | [19] > 100 µM | [20] > 100 µM

CC[C@]12CCCN3CCc4c(n(c5ccccc45)C(=O)C1)[C@@H]32 [VINBURNINE]
inactive: [1] 4.43 µM | [2] 10.1 µM | [3] 1.53 µM | [4] > 83.8 µM | [5] 13.3 µM | [6] 2.32 µM | [7] 5.05 µM | [8] > 80.9 µM | [9] 24.7 µM | [10] 4.63 µM | [11] 5.85 µM | [12] 3.97 µM | [13] 18.2 µM | [14] 1.26 µM | [15] 9.33 µM | [16] 14.4 µM | [17] 3.25 µM | [18] 12.9 µM | [19] 12.5 µM | [20] 3.86 µM
